Data set [1] can be described thus: pKa determination by differential scanning potentiometry (DSP). It counts as physicochemical. The procedure: In the differential scanning potentiometry (DSP) methodology, acid and basic groups generate negative and positive areas, respectively. Thus, the NH acidic groups of AZT and thymidine were used as reference to validate the DSP, since their pKa values had been previously reported.
A conventional pH-meter (GLP 21, Crison Instrument) with an Ag/AgCl-reference electrode was used. NaOH was added at 0.1 mL increments, with its corresponding pH value recorded from the average of two sample determinations using DMSO as the cosolvent (2.5 %) at 25 °C. The areas were calculated using the Origin 7 program. For the reference graph, an aliquot of 10 mL of HCl (0.1 mol L^−1) and 0.5 mL of DMSO was titrated with NaOH (0.1 mol L^−1); for the sample graphs, aliquots (10 mL) of HCl (0.1 mol L^−1), 0.5 mL DMSO and 0.12 mmol for each compound were titrated with NaOH (0.1 mol L^−1). The volume of each solution was completed to 20 mL with Milli-Q water before titration.

The conditions of data set [2]: cited from earlier work.
Data set [3] in a line: aqueous stability in buffers of different pH at 60 °C, HPLC. Type of data set: physicochemical. Also noted: key to Aqueous stability: Stable: degradation products by HPLC were not observed after 80 h of experiment; Unstable: The determination was not possible due to a rapid decomposition. The settings on record: for half-life at 0.5 mM: aqueous buffer, read-out: t½. An excerpt: Table 2 lists the pH media, experimental rate constants (kobs, when it could be determined) and their corresponding half-life times (t½).
The aqueous stability of AZT and their derivatives 2–6 was examined at different pH values: pH 1.0 (hydrochloric acid-potassium chloride); pH 2.6 (citric acid-sodium phosphate monobasic); pH 7.4 (sodium phosphate dibasic); pH 9.4 (sodium hydrogen carbonate-sodium hydroxide) and pH 13.2 (potassium chloride-sodium hydroxide). The buffer concentrations were 0.1 mol L^−1 and the ionic strength (μ) of the buffers was adjusted to 0.1 with calculated amount of sodium chloride (NaCl). All buffer solutions were prepared with Milli Q water. The pH of each solution was determined using a GLP 21 (Crison Instruments) pHmeter. Stock solutions (5 × 10^−5 mol mL^−1) of each compound were prepared in DMSO prior to use, with 10 μL of the stock solution being added to 990 μL of buffer, and the vials placed in a water bath at 60 °C during all the experiment. Each vial was withdrawn at predetermined time intervals, and immediately stored at −18 °C until being used. For their analysis, the samples were left to defrost, and the aliquots of 100 μL were sampled and added to 400 μL of MeOH at 25 °C. Then, the solution was analyzed by HPLC to determine the rate of disappearance of each compound.
Samples were analyzed using an HPLC system Agilent® 1100 equipped with Phenomenex® column: Hypersil ODS 5 μ particle diameter (4.6 × 250 mm). Detection was carried out with an UV detector at λ = 267 nm, using the following three solvent systems as mobile phases with a flow rate of 1 mL min^−1 at 35 °C: A); 50% phosphate buffer (pH 7.5, 0.02 mol L^−1), 50% MeOH and 2% THF; B) 60% phosphate buffer (pH 7.5, 0.02 mol L^−1), 40% MeOH and 2% THF; and; C) 65% phosphate buffer (pH 7.5, 0.02 mol L^−1), 35% MeOH and 2% THF to obtain an adequate peak separation.

On the set-up of data set [4]: method as in earlier work. To be noted: cited from earlier work.
The nature of data set [5]: Differential Scanning Calorimetry (DSC) and Thermogravimetry (TG). Type of data set: physicochemical. The settings on record: for DSC exothermic decomposition peak: accompanied by weight loss in TG, nitrogen atmosphere, 25–300 °C; for glass transition, small DSC endothermic peak (T onset): extrapolated onset temperature. The procedure: Compounds 2, 4, 5 and 6 also presented an exothermic decomposition peak above 150 °C, which is accompanied by a weight loss in the respective TG curves (Figure 3).
(§1) DSC measurements were carried out using a 2920 modulated DSC (TA Instrument). The temperature axis and the cell constant of the DSC were calibrated with indium. Weighed samples (1.5–3 mg, C-33 Microbalance, Cahan) were scanned in covered aluminium (Al) pans under a dynamic dry nitrogen atmosphere (50 mL min^−1) starting at 25 °C and raising the temperature in 5 °C steps until reaching 300 °C. TG measurements were performed with a TA Instrument Hi-res TG 2950 (TA Instrument). Samples (1.5–3 mg) were weighed in Al pans, starting at 25 °C and raising the temperature in 5 °C steps until reaching 300 °C, under a dynamic dry nitrogen atmosphere (50 mL min^−1). The Universal Analysis Version 2.5H software was used for both measurements. The XRPD patterns were determined at around 20 °C using a diffractometer (Miniflex 2000, Rigaku), with CuKα radiation (λ= 1.5418 Å) being obtained by Ni-filtration. Each sample was packed into an Al holder in the range of 5–50 (2Θ).

The next data set deals with HIV. Also noted: method as in earlier work. To be noted: previous in vitro studies; cited from earlier work.
Data set [6] can be described thus: X-Ray Powder Diffractometry (XRPD). Type of data set: physicochemical. The settings on record: around 20 °C, CuKα radiation. The procedure: XRPD analysis provides an accurate identification of crystalline and amorphous solid phases. The XRPD patterns of AZT and their derivatives 2–6 are depicted in Figure 4.
as §1

Details of data set [7]: method as in earlier work. To be noted: cited from earlier work. This is another data set of the same source.
The mark [8] stands for this setting: aqueous HCl solution with DMSO cosolvent, titrated with NaOH, DSP, DMSO 2.5 % cosolvent, 25 °C, calculated from area with eq. 2, read-out: pKa, NH group of the pyrimidinic base, experimental value.
The mark [9] stands for this setting: aqueous HCl solution with DMSO cosolvent, titrated with NaOH, DSP, DMSO 2.5 % cosolvent, 25 °C, calculated from area with eq. 2, read-out: pKa, aliphatic amine, experimental value.

The source of these data is publication PMC3163364, “Preformulation Studies of Zidovudine Derivatives: Acid Dissociation Constants, Differential Scanning Calorimetry, Thermogravimetry, X-Ray Powder Diffractometry and Aqueous Stability Studies” (Scientia Pharmaceutica, 2011).

Where two headings read alike, the source gives them in different places.

For the compound `Cc1cn([C@H]2C[C@H](O)[C@@H](CO)O2)c(=O)[nH]c1=O` [Thymidine, reference compound], the pKa in data set [1] (pKa, NH group of the pyrimidinic base, experimental value) was 9.45.
As for `Cc1cn([C@H]2C[C@H](N=[N+]=[N-])[C@@H](CO)O2)c(=O)[nH]c1=O` [compound 1, 3′-Azido-3′-deoxythymidine, reference compound], the “pKa, NH acidic group, previously reported experimental value” in data set [2] is 9.68. Moreover, the pKa in data set [1] (DSP, DMSO 2.5 % cosolvent, 25 °C, calculated from area with eq. 2, read-out: pKa, NH group of the pyrimidinic base, experimental value) is 9.42. Also, the Aqueous stability entry is on record as “Stable^a” in data set [3] (pH 1.0, 60 °C); “Stable^a” in data set [3] (pH 7.4, 60 °C); “Stable^a” in data set [3] (pH 9.4, 60 °C); “Stable^a” in data set [3] (pH 13.2, 60 °C). Further, in data set [3] (pH 1.0–13.2), the “aqueous stability over the studied pH media, in words” value is given as “stable at the studied pH media”.
Consider `Cc1ccc(S(=O)(=O)OC[C@H]2O[C@@H](n3cc(C)c(=O)[nH]c3=O)C[C@@H]2N=[N+]=[N-])cc1` [compound 2], for which the “stability in rat plasma” value in data set [4] is “stable”. Besides, the “DSC exothermic decomposition peak” value in data set [5] is “above 150 °C”. Moreover, the half-life at 0.5 mM in data set [3] (pH 7.4, 60 °C) turned out to be 12.1 h; in data set [3] (pH 9.4, 60 °C), 0.775 h; in data set [3] (pH 13.2, 60 °C) it was 0.765 h. For the same compound, in data set [3] (pH 1.0, 60 °C), the Aqueous stability entry was “Stable^a”. The “Degradation rate constant, kobs” value in data set [3] (pH 7.4, 60 °C) is reported as 0.94 10^−3 min^−1; in data set [3] (pH 9.4, 60 °C), 14.9 10^−3 min^−1; in data set [3] (pH 13.2, 60 °C), 15.1 10^−3 min^−1. In addition, the anti-HIV activity entry in the data set with HIV is “lacked the necessary activity”.
Regarding `Cc1cn([C@H]2C[C@H](N=[N+]=[N-])[C@@H](COC(=O)N3CCCCC3)O2)c(=O)[nH]c1=O` [compound 4], the “DSC exothermic decomposition peak” value in data set [5] was “above 150 °C”. For the same compound, the pKa in data set [1] (setting [8]) was 8.61. In addition, in data set [3] (pH 13.2, 60 °C), the half-life at 0.5 mM was 11.2 h; the “Degradation rate constant, kobs” value was 1.04 10^−3 min^−1; the kobs is 0.00104 min⁻¹. Also, the Aqueous stability entry in data set [3] (pH 1.0, 60 °C) is “Stable^a”. Also, the Aqueous stability entry in data set [3] (pH 7.4, 60 °C) is “Stable^a”. The Aqueous stability result in data set [3] (pH 9.4, 60 °C) is listed as “Stable^a”.
In the case of `Cc1cn([C@H]2C[C@H](N=[N+]=[N-])[C@@H](COC(=O)NCCN3CCNCC3)O2)c(=O)[nH]c1=O` [compound 6], in data set [5], the “DSC exothermic decomposition peak” value is “above 150 °C” and the “glass transition, small DSC endothermic peak (T onset)” value was 42.5 °C. Besides, the pKa in data set [1] (setting [9]) is 9.03. For the same compound, in data set [3] (pH 13.2, 60 °C), the half-life at 0.5 mM was determined as 6.48 h; the “Degradation rate constant, kobs” value was 1.96 10^−3 min^−1; the kobs was found to be 0.00196 min⁻¹. In addition, the Aqueous stability entry in data set [3] (pH 1.0, 60 °C) is reported as “Stable^a”. Also, in data set [3] (pH 7.4, 60 °C), the Aqueous stability entry is “Stable^a”. Besides, the Aqueous stability entry in data set [3] (pH 9.4, 60 °C) is “Stable^a”. Besides, the “solid state by XRPD (crystalline or amorphous)” value in data set [6] is recorded as “amorphous”.
As for `Cc1cn([C@H]2C[C@H](N=[N+]=[N-])[C@@H](COC(=O)N3CCNCC3)O2)c(=O)[nH]c1=O` [compound 5], the “DSC exothermic decomposition peak” value in data set [5] is “above 150 °C”. Also, the “glass transition, small DSC endothermic peak (T onset)” value in data set [5] is 35.1 °C. Moreover, the pKa was 8.66 in data set [1] (setting [8]) and 6.52 in data set [1] (setting [9]). Also, the half-life at 0.5 mM in data set [3] (pH 13.2, 60 °C) was 3.97 h. For the same compound, the Aqueous stability result is on record as “Stable^a” in data set [3] (pH 1.0, 60 °C); “Stable^a” in data set [3] (pH 7.4, 60 °C); “Stable^a” in data set [3] (pH 9.4, 60 °C). In data set [3] (pH 13.2, 60 °C), this compound returned a kobs of 0.00323 min⁻¹. The “solid state by XRPD (crystalline or amorphous)” value in data set [6] is “amorphous”.
`CC[C@H]1OC(=O)[C@H](C)[C@@H](O[C@H]2C[C@@](C)(OC)[C@@H](O)[C@H](C)O2)[C@H](C)[C@@H](O[C@@H]2O[C@H](C)C[C@H](N(C)C)[C@H]2O)[C@](C)(O)C[C@@H](C)C(=O)[C@H](C)[C@@H](O)[C@]1(C)O` [erytromycine]: in data set [2] (reference values, source not given), the “pKa of compounds used for regression of DSP area vs pKa (eq. 2)” value is on record as 8.80.
Consider `Cc1cn2c(nc1=O)OC[C@H]1O[C@@H]2C[C@@H]1N=[N+]=[N-]` [compound 3], for which the “stability in rat plasma” value in data set [4] (30 h of incubation at 37 °C) is reported as “showed stability”. Further, the “DSC exothermic decomposition peak” value in data set [5] worked out at 215 °C. The half-life at 0.5 mM in data set [3] (pH 1.0, 60 °C) turned out to be 2.13 h; in data set [3] (pH 7.4, 60 °C), 79.2 h; in data set [3] (pH 9.4, 60 °C), 2.07 h. For the same compound, the “Degradation rate constant, kobs” value is given as 5.43 10^−3 min^−1 in data set [3] (pH 1.0, 60 °C); 0.15 10^−3 min^−1 in data set [3] (pH 7.4, 60 °C); 5.58 10^−3 min^−1 in data set [3] (pH 9.4, 60 °C). The Aqueous stability result in data set [3] (pH 13.2, 60 °C) is “Unstable^d”. For the same compound, the cytotoxicity entry in data set [7] is recorded as “no cytotoxicity”. Also, in the data set on HIV, the anti-HIV activity entry is “anti-HIV activity”.
